{"source": "ChEMBL document CHEMBL6127052", "about": "“Discovery of membrane-targeting amphiphilic honokiol derivatives containing an oxazolethione moiety to combat methicillin-resistant Staphylococcus aureus (MRSA) infections” (Eur J Med Chem, 2024)", "data": [{"system": "Staphylococcus aureus", "test": "Antibacterial activity against Staphylococcus aureus ATCC 29213 by CLSI based micro-broth dilution method", "assay_type": "functional", "units": {"MIC": "µg/mL"}, "values": [{"smiles": "C=CCc1cc(-c2ccc(OCCC[N+](C)(C)CC(=O)NCCCC)c(CC=C)c2)c2oc(=S)n(Cc3ccc(Cl)cc3F)c2c1.[Br-]", "MIC": "> 128"}, {"smiles": "C=CCc1cc(-c2ccc(OCCC[N+](C)(C)CC(=O)NCCCC)c(CC=C)c2)c2oc(=S)n(Cc3ccc(Cl)cc3Cl)c2c1.[Br-]", "MIC": "> 128"}, {"smiles": "C=CCc1ccc(O)c(-c2ccc(O)c(CC=C)c2)c1", "note": "[HONOKIOL]", "MIC": 32}]}, {"system": "Staphylococcus aureus", "test": "Antibacterial activity against methicillin-resistant Staphylococcus aureus N315 by CLSI based micro-broth dilution method", "assay_type": "functional", "units": {"MIC": "µg/mL"}, "values": [{"smiles": "C=CCc1cc(-c2ccc(OCCC[N+](C)(C)CC(=O)NCCCC)c(CC=C)c2)c2oc(=S)n(Cc3ccc(Cl)cc3F)c2c1.[Br-]", "MIC": 128}, {"smiles": "C=CCc1cc(-c2ccc(OCCC[N+](C)(C)CC(=O)NCCCC)c(CC=C)c2)c2oc(=S)n(Cc3ccc(Cl)cc3Cl)c2c1.[Br-]", "MIC": 128}, {"smiles": "C=CCc1ccc(O)c(-c2ccc(O)c(CC=C)c2)c1", "note": "[HONOKIOL]", "MIC": 8}]}, {"system": "Staphylococcus aureus", "test": "Antibacterial activity against methicillin-resistant Staphylococcus aureus clinical isolate M11 by CLSI based micro-broth dilution method", "assay_type": "functional", "units": {"MIC": "µg/mL"}, "values": [{"smiles": "C=CCc1cc(-c2ccc(OCCC[N+](C)(C)CC(=O)NCCCC)c(CC=C)c2)c2oc(=S)n(Cc3ccc(Cl)cc3F)c2c1.[Br-]", "MIC": "> 128"}, {"smiles": "C=CCc1cc(-c2ccc(OCCC[N+](C)(C)CC(=O)NCCCC)c(CC=C)c2)c2oc(=S)n(Cc3ccc(Cl)cc3Cl)c2c1.[Br-]", "MIC": "> 128"}, {"smiles": "C=CCc1ccc(O)c(-c2ccc(O)c(CC=C)c2)c1", "note": "[HONOKIOL]", "MIC": 16}]}, {"system": "Staphylococcus aureus", "test": "Antibacterial activity against methicillin-resistant Staphylococcus aureus clinical isolate M12 by CLSI based micro-broth dilution method", "assay_type": "functional", "units": {"MIC": "µg/mL"}, "values": [{"smiles": "C=CCc1cc(-c2ccc(OCCC[N+](C)(C)CC(=O)NCCCC)c(CC=C)c2)c2oc(=S)n(Cc3ccc(Cl)cc3F)c2c1.[Br-]", "MIC": "> 128"}, {"smiles": "C=CCc1cc(-c2ccc(OCCC[N+](C)(C)CC(=O)NCCCC)c(CC=C)c2)c2oc(=S)n(Cc3ccc(Cl)cc3Cl)c2c1.[Br-]", "MIC": "> 128"}, {"smiles": "C=CCc1ccc(O)c(-c2ccc(O)c(CC=C)c2)c1", "note": "[HONOKIOL]", "MIC": 8}]}, {"system": "Staphylococcus aureus", "test": "Antibacterial activity against methicillin-resistant Staphylococcus aureus clinical isolate M13 by CLSI based micro-broth dilution method", "assay_type": "functional", "units": {"MIC": "µg/mL"}, "values": [{"smiles": "C=CCc1cc(-c2ccc(OCCC[N+](C)(C)CC(=O)NCCCC)c(CC=C)c2)c2oc(=S)n(Cc3ccc(Cl)cc3F)c2c1.[Br-]", "MIC": "> 128"}, {"smiles": "C=CCc1cc(-c2ccc(OCCC[N+](C)(C)CC(=O)NCCCC)c(CC=C)c2)c2oc(=S)n(Cc3ccc(Cl)cc3Cl)c2c1.[Br-]", "MIC": "> 128"}, {"smiles": "C=CCc1ccc(O)c(-c2ccc(O)c(CC=C)c2)c1", "note": "[HONOKIOL]", "MIC": 16}]}, {"system": "Staphylococcus aureus", "test": "Antibacterial activity against methicillin-resistant Staphylococcus aureus clinical isolate M14 by CLSI based micro-broth dilution method", "assay_type": "functional", "units": {"MIC": "µg/mL"}, "values": [{"smiles": "C=CCc1cc(-c2ccc(OCCC[N+](C)(C)CC(=O)NCCCC)c(CC=C)c2)c2oc(=S)n(Cc3ccc(Cl)cc3F)c2c1.[Br-]", "MIC": "> 128"}, {"smiles": "C=CCc1cc(-c2ccc(OCCC[N+](C)(C)CC(=O)NCCCC)c(CC=C)c2)c2oc(=S)n(Cc3ccc(Cl)cc3Cl)c2c1.[Br-]", "MIC": "> 128"}, {"smiles": "C=CCc1ccc(O)c(-c2ccc(O)c(CC=C)c2)c1", "note": "[HONOKIOL]", "MIC": 16}]}, {"system": "Staphylococcus aureus", "test": "Antibacterial activity against methicillin-resistant Staphylococcus aureus clinical isolate M16 by CLSI based micro-broth dilution method", "assay_type": "functional", "units": {"MIC": "µg/mL"}, "values": [{"smiles": "C=CCc1cc(-c2ccc(OCCC[N+](C)(C)CC(=O)NCCCC)c(CC=C)c2)c2oc(=S)n(Cc3ccc(Cl)cc3F)c2c1.[Br-]", "MIC": "> 128"}, {"smiles": "C=CCc1cc(-c2ccc(OCCC[N+](C)(C)CC(=O)NCCCC)c(CC=C)c2)c2oc(=S)n(Cc3ccc(Cl)cc3Cl)c2c1.[Br-]", "MIC": "> 128"}, {"smiles": "C=CCc1ccc(O)c(-c2ccc(O)c(CC=C)c2)c1", "note": "[HONOKIOL]", "MIC": 16}]}, {"system": "Staphylococcus aureus", "test": "Antibacterial activity against methicillin-resistant Staphylococcus aureus clinical isolate M17 by CLSI based micro-broth dilution method", "assay_type": "functional", "units": {"MIC": "µg/mL"}, "values": [{"smiles": "C=CCc1cc(-c2ccc(OCCC[N+](C)(C)CC(=O)NCCCC)c(CC=C)c2)c2oc(=S)n(Cc3ccc(Cl)cc3F)c2c1.[Br-]", "MIC": "> 128"}, {"smiles": "C=CCc1cc(-c2ccc(OCCC[N+](C)(C)CC(=O)NCCCC)c(CC=C)c2)c2oc(=S)n(Cc3ccc(Cl)cc3Cl)c2c1.[Br-]", "MIC": "> 128"}, {"smiles": "C=CCc1ccc(O)c(-c2ccc(O)c(CC=C)c2)c1", "note": "[HONOKIOL]", "MIC": 16}]}, {"system": "Staphylococcus aureus", "test": "Antibacterial activity against methicillin-resistant Staphylococcus aureus clinical isolate M20 by CLSI based micro-broth dilution method", "assay_type": "functional", "units": {"MIC": "µg/mL"}, "values": [{"smiles": "C=CCc1cc(-c2ccc(OCCC[N+](C)(C)CC(=O)NCCCC)c(CC=C)c2)c2oc(=S)n(Cc3ccc(Cl)cc3F)c2c1.[Br-]", "MIC": "> 128"}, {"smiles": "C=CCc1cc(-c2ccc(OCCC[N+](C)(C)CC(=O)NCCCC)c(CC=C)c2)c2oc(=S)n(Cc3ccc(Cl)cc3Cl)c2c1.[Br-]", "MIC": "> 128"}, {"smiles": "C=CCc1ccc(O)c(-c2ccc(O)c(CC=C)c2)c1", "note": "[HONOKIOL]", "MIC": 8}]}, {"system": "Staphylococcus aureus", "test": "Antibacterial activity against methicillin-resistant Staphylococcus aureus clinical isolate M21 by CLSI based micro-broth dilution method", "assay_type": "functional", "units": {"MIC": "µg/mL"}, "values": [{"smiles": "C=CCc1cc(-c2ccc(OCCC[N+](C)(C)CC(=O)NCCCC)c(CC=C)c2)c2oc(=S)n(Cc3ccc(Cl)cc3F)c2c1.[Br-]", "MIC": "> 128"}, {"smiles": "C=CCc1cc(-c2ccc(OCCC[N+](C)(C)CC(=O)NCCCC)c(CC=C)c2)c2oc(=S)n(Cc3ccc(Cl)cc3Cl)c2c1.[Br-]", "MIC": "> 128"}, {"smiles": "C=CCc1ccc(O)c(-c2ccc(O)c(CC=C)c2)c1", "note": "[HONOKIOL]", "MIC": 16}]}, {"system": "Staphylococcus aureus", "test": "Antibacterial activity against methicillin-resistant Staphylococcus aureus clinical isolate M22 by CLSI based micro-broth dilution method", "assay_type": "functional", "units": {"MIC": "µg/mL"}, "values": [{"smiles": "C=CCc1cc(-c2ccc(OCCC[N+](C)(C)CC(=O)NCCCC)c(CC=C)c2)c2oc(=S)n(Cc3ccc(Cl)cc3F)c2c1.[Br-]", "MIC": "> 128"}, {"smiles": "C=CCc1cc(-c2ccc(OCCC[N+](C)(C)CC(=O)NCCCC)c(CC=C)c2)c2oc(=S)n(Cc3ccc(Cl)cc3Cl)c2c1.[Br-]", "MIC": "> 128"}, {"smiles": "C=CCc1ccc(O)c(-c2ccc(O)c(CC=C)c2)c1", "note": "[HONOKIOL]", "MIC": 16}]}, {"system": "Staphylococcus aureus", "test": "Antibacterial activity against methicillin-resistant Staphylococcus aureus clinical isolate M23 by CLSI based micro-broth dilution method", "assay_type": "functional", "units": {"MIC": "µg/mL"}, "values": [{"smiles": "C=CCc1cc(-c2ccc(OCCC[N+](C)(C)CC(=O)NCCCC)c(CC=C)c2)c2oc(=S)n(Cc3ccc(Cl)cc3F)c2c1.[Br-]", "MIC": "> 128"}, {"smiles": "C=CCc1cc(-c2ccc(OCCC[N+](C)(C)CC(=O)NCCCC)c(CC=C)c2)c2oc(=S)n(Cc3ccc(Cl)cc3Cl)c2c1.[Br-]", "MIC": "> 128"}, {"smiles": "C=CCc1ccc(O)c(-c2ccc(O)c(CC=C)c2)c1", "note": "[HONOKIOL]", "MIC": 16}]}, {"system": "Escherichia coli", "test": "Antibacterial activity against Escherichia coli ATCC 25922 by CLSI based micro-broth dilution method", "assay_type": "functional", "units": {"MIC": "µg/mL"}, "values": [{"smiles": "C=CCc1cc(-c2ccc(OCCC[N+](C)(C)CC(=O)NCCCC)c(CC=C)c2)c2oc(=S)n(Cc3ccc(Cl)cc3F)c2c1.[Br-]", "MIC": "> 128"}, {"smiles": "C=CCc1cc(-c2ccc(OCCC[N+](C)(C)CC(=O)NCCCC)c(CC=C)c2)c2oc(=S)n(Cc3ccc(Cl)cc3Cl)c2c1.[Br-]", "MIC": "> 128"}, {"smiles": "C=CCc1ccc(O)c(-c2ccc(O)c(CC=C)c2)c1", "note": "[HONOKIOL]", "MIC": "> 128"}]}, {"system": "not listed separately", "test": "Hemolytic activity in sheep erythrocytes incubated for 1 hr by absorbance based assay", "assay_type": "toxicity, cell-based, Ovis aries, Erythrocyte", "units": {"HC50 at 1 h": "µg/mL"}, "values": [{"smiles": "C=CCc1cc(-c2ccc(OCCC[N+](C)(C)CC(=O)NCCCC)c(CC=C)c2)c2oc(=S)n(Cc3ccc(Cl)cc3F)c2c1.[Br-]", "HC50 at 1 h": "> 160"}, {"smiles": "C=CCc1cc(-c2ccc(OCCC[N+](C)(C)CC(=O)NCCCC)c(CC=C)c2)c2oc(=S)n(Cc3ccc(Cl)cc3Cl)c2c1.[Br-]", "HC50 at 1 h": "> 160"}, {"smiles": "C=CCc1ccc(O)c(-c2ccc(O)c(CC=C)c2)c1", "note": "[HONOKIOL]", "HC50 at 1 h": "> 80"}]}, {"system": "not listed separately", "test": "Selectivity index, ratio of HC50 for hemolytic activity in sheep erythrocytes to MIC for antibacterial activity against Staphylococcus aureus ATCC 29213", "assay_type": "toxicity, cell-based, RBC", "values": [{"smiles": "C=CCc1cc(-c2ccc(OCCC[N+](C)(C)CC(=O)NCCCC)c(CC=C)c2)c2oc(=S)n(Cc3ccc(Cl)cc3F)c2c1.[Br-]", "selectivity ratio": 1.3}, {"smiles": "C=CCc1cc(-c2ccc(OCCC[N+](C)(C)CC(=O)NCCCC)c(CC=C)c2)c2oc(=S)n(Cc3ccc(Cl)cc3Cl)c2c1.[Br-]", "selectivity ratio": 1.3}, {"smiles": "C=CCc1ccc(O)c(-c2ccc(O)c(CC=C)c2)c1", "note": "[HONOKIOL]", "selectivity ratio": "> 2.5"}]}]}
